Results reported in paper PMC7828731, “Anti-Aging Potential of Extracts from Washingtonia filifera Seeds” (Plants, 2021).
≈ marks a conversion by molar mass, not a printed value.

Biological target: T1, Collagenase from Clostridium histolyticum
T1 construct: gene colG; commercial native collagenase (Sigma)
Experiment: absorbance at […] nm, FALGPA hydrolysis
Assay type: biochemical, Hathewaya histolytica
Conditions: FALGPA 0.8 mM; 0.05 M Tricine, pH 7.5, 0.4 M NaCl, 0.01 M CaCl2; 15 min preincubation

O=C(O[C@@H]1Cc2c(O)cc(O)cc2O[C@@H]1c1cc(O)c(O)c(O)c1)c1cc(O)c(O)c(O)c1 [Epigallocatechin gallate]
IC50 (μg/mL) / Collagenase *: 120.8 ± 6.22 µg/mL (≈ 264 µM)
